Columns and labels:
SRC1_613–773 = biological target: T1, SRC1_613–773 (Homo sapiens, UniProt Q15788); test: SPR (Biacore) binding assay, control; settings: SPR control experiment
T1 construct: The plasmid pET15b-SRC1_613–773 is constructed with NdeI-BamHI sites; His-tag (N); made in house; host or cells: E. coli BL21 (DE3)
Procedure: (§1) Binding affinities of Rut towards proteins are analyzed using SPR technology based Biacore 3000 instrument (GE Healthcare). In the assay, proteins are immobilized to CM5 chips using a standard amine-coupling procedure (Biacore manual). The proteins to be covalently bound to the chips are diluted in 10 mM sodium acetate buffer (pH4.5) to a final concentration of 0.10 mg/ml. Before experiments, baseline is equilibrated with a continuous flow of running buffer (10 mM HEPES, 150 mM NaCl, 3 mM EDTA, and 0.005% (v/v) surfactant P20, pH7.4) for 2 hours. Subsequently, Rut with a gradient of concentrations is injected to the channels at a flow rate of 20 µL/min for 60 seconds, followed by disassociation for 120 seconds. The 1∶1 Langmuir binding fitting model in BIAevaluation software version 3.1 (Biacore) is used to determine the equilibrium dissociation constants (K Ds) of compounds. For SRC1 recruitment assay, purified SRC1_613–773 is immobilized to a CM5 chip. Different concentrations of PPARγ-LBD or RXRα-LBD are injected to the channel at a flow rate of 20 µL/min for 60 s, followed by disassociation for 120 s. To further detect the effects of Rut on PPARγ-LBD/SRC1 or RXRα-LBD/SRC1 interactions, 1 µM PPARγ-LBD or RXRα-LBD is incubated with Rut (16.8–100 µM) for 1 hour, and then injected onto the chip.

CD45 = biological target: T2, CD45 (Homo sapiens, UniProt P08575); test: PTP enzyme inhibition assay (pNPP substrate); assay type: biochemical; settings: PTPs 0.3 µM, pNPP 5 mM, 25°C; NI: No inhibition at 100 µM
T2 construct: pGEX2T-CD45_560–1256; GST (N); made in house; host or cells: E. coli BL21 (DE3)
T2 sequence (P08575 610-1306 limits assumed): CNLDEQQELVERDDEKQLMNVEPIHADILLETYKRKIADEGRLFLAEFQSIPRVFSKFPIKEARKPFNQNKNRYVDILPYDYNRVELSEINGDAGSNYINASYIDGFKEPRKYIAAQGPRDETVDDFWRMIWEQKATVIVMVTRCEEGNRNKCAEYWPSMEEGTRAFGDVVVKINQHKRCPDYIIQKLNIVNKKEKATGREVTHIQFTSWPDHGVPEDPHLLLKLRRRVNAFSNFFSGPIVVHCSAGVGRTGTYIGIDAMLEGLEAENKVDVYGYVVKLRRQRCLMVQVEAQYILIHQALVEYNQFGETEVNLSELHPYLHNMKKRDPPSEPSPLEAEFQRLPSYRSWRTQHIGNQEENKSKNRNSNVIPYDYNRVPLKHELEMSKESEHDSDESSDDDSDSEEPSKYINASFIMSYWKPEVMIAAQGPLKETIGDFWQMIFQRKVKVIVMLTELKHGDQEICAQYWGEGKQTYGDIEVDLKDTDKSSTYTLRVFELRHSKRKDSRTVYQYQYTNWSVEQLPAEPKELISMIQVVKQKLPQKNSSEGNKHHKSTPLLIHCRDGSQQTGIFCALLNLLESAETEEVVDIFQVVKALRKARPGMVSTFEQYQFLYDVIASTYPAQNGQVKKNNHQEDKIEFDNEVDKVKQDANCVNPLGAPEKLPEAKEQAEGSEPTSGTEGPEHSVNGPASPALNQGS
Procedure: (§2) The enzymatic activities of the recombinant PTPs are measured at 25°C using pNPP as substrate. The initial velocities of enzymatic reactions are determined by continuously measuring the absorbance at 405 nm every 15 s using a microplate spectrophotometer (Bio-Rad). […] To determine the inhibition type, each concentration of Rut (0, 50 and 75 µM) is incubated with PTP1B (0.3 µM) in reaction buffer (50 mM HEPES, pH7.0, 1 mM EDTA, and 100 mM NaCl) for 10 min and the reactions are initiated by different concentrations of pNPP (0.5–10 mM). The inhibition type is determined using double-reciprocal plots. In determination of the selectivity of Rut against PTPs, the result is referred as no inhibition when 100 µM Rut inhibits no enzyme activity. The same reaction systems are designed for all PTPs including PTP1B.

LAR = biological target: T3, LAR (Homo sapiens, UniProt P10586); test: PTP enzyme inhibition assay (pNPP substrate); assay type: biochemical; settings: read-out: IC50 LAR; PTPs 0.3 µM, pNPP 5 mM, 25°C; NI: No inhibition at 100 µM
T3 construct: pGEX2T-LAR1282–1888; GST (N); made in house; host or cells: E. coli BL21 (DE3)
T3 sequence (P10586 1301-1907 limits assumed): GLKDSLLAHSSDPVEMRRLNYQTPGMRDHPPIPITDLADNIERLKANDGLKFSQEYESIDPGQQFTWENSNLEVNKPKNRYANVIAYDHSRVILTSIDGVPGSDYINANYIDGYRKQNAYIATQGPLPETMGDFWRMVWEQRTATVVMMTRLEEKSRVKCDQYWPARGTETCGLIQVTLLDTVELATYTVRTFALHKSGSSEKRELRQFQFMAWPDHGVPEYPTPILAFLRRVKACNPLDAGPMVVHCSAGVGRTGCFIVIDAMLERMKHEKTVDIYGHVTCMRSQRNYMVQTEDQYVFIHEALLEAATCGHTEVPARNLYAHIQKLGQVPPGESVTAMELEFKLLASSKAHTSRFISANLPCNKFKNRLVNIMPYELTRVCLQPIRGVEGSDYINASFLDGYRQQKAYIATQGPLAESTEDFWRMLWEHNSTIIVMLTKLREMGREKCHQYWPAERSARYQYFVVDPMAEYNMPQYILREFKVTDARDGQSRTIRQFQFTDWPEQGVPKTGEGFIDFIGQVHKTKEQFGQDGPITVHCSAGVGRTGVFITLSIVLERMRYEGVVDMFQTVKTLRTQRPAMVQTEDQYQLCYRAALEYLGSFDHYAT
Procedure: as §2

[1] = tested on: IR (Tyr1146), AKT (Ser473) in 3T3-L1 adipocytes; test: Western blot of IR and AKT phosphorylation; assay type: cell-based; settings: insulin 17 nM, 5 minutes
Procedure: (§3) Insulin sensitizing effects of Rut are investigated in CHO-K1 and 3T3-L1 adipocytes. After incubation with compounds in serum-free medium for indicated time, cells are stimulated with insulin (170 nM for CHO-K1 cells and 17 nM for 3T3-L1 adipocytes) for 5 min, and the stimulation is stopped by ice-cold PBS. The effect of Rut on insulin signaling is also investigated in CHO-K1 cells. In the assay, cells are stimulated with Rut (20 µM, 8 h) or insulin (170 nM, 5 min), and then lysed on ice. GLUT4 protein level is studied in the differentiated 3T3-L1 adipocytes (the 10th day after MDI stimulation). After incubation of compounds for 48 h, cells are lysed on ice. The proteins are resolved by SDS-polyacrylamide gel electrophoresis and electro-transferred to polyvinylidene difluoride membranes. The membrane is blocked by 5% skimmed milk and incubated with antibodies. Proteins are visualized by the ECL detecting system.

[2] = tested on: IR (Tyr1146), AKT (Ser473) in CHO-K1 cells; test: Western blot of IR and AKT phosphorylation; assay type: cell-based; settings: insulin 170 nM, 5 minutes, different doses of Rut
Procedure: as §3

PPARγ-LBD = biological target: T4, PPARγ-LBD (Homo sapiens, UniProt P37231); test: SPR (Biacore) binding assay; settings: 1:1 Langmuir fitting
T4 construct: pET15b-PPARγ-LBD202–477; His-tag (N); made in house; host or cells: E. coli BL21 (DE3)
T4 sequence (P37231 230-505): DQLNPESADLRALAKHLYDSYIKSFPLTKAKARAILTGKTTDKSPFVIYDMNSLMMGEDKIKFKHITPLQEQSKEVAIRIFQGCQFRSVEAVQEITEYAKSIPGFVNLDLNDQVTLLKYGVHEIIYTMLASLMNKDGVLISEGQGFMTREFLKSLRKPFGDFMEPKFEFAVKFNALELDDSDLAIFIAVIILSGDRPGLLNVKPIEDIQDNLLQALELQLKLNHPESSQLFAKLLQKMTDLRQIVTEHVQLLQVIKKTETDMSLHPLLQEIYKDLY
Procedure: as §1, with “For SRC1 recruitment assay, purified SRC1_613–773 is immobilized to a CM5 chip.” left out, “s.” for “s. To further detect the effects of Rut on PPARγ-LBD/SRC1 or RXRα-LBD/SRC1 interactions, 1 µM PPARγ-LBD or RXRα-LBD is incubated with Rut (16.8–100 µM) for 1 hour, and then injected onto the chip.”

T1 sequence (Q15788 613-773): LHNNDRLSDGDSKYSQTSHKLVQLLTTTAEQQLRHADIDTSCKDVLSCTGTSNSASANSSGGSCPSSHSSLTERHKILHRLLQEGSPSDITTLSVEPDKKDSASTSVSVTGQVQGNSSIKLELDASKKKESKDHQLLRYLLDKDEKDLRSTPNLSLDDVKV

## C=CC(C)(C)c1cc2cc3c(cc2oc1=O)O[C@H](C(C)(C)OC(C)=O)C3 [(+)-Rutamarin]
SRC1_613–773
  binding to SRC1: does not bind
CD45
  IC50: > 100 µM
LAR
  IC50: > 100 µM
[1]
  insulin-stimulated phosphorylation levels of IR and AKT: largely increased
[2]
  insulin-induced phosphorylation of IR and AKT: enhances
PPARγ-LBD
  equilibrium dissociation constant KD / binding to PPARγ-LBD: no binding
